Activity calls are given as the source filed them.
Legend:
Septin-9 = molecular target: T1, Septin-9 (Homo sapiens, UniProt Q9UHD8)
T1 sequence (Q9UHD8 whole entry): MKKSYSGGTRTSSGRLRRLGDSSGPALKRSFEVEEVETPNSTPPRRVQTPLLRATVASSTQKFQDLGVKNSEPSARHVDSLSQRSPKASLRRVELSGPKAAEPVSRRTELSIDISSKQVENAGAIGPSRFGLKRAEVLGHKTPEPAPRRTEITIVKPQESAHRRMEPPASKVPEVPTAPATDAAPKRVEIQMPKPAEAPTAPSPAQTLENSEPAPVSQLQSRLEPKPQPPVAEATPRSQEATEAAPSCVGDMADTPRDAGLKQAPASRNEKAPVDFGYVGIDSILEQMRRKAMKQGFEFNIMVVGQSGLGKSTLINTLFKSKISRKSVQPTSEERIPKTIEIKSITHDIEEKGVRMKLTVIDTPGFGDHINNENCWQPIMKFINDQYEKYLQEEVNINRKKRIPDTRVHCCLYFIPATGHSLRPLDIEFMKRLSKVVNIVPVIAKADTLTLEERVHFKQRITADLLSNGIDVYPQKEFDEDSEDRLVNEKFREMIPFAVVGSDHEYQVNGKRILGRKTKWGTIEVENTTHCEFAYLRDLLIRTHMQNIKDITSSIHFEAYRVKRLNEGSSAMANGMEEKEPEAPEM

[1] = molecular target: Receptor-interacting serine/threonine-protein kinase 3 (Homo sapiens, UniProt Q9Y572)
Receptor-interacting serine/threonine-protein kinase 3, sequence (Q9Y572 whole entry): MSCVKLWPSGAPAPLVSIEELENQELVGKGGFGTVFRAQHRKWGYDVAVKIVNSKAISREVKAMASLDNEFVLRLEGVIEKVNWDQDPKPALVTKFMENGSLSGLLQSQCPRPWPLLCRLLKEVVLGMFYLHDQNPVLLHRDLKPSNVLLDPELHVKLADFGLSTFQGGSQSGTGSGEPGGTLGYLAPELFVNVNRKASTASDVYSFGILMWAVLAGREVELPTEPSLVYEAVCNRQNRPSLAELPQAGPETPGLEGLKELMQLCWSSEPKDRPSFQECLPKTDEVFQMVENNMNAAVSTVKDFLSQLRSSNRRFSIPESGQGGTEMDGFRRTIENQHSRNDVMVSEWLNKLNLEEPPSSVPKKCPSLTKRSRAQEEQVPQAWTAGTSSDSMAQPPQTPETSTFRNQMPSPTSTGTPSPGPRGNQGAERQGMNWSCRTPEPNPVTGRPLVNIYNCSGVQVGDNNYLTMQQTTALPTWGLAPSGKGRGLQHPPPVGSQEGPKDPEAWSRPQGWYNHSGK

[2] = molecular target: Serine/threonine-protein kinase N1 (Homo sapiens, UniProt Q16512)
Serine/threonine-protein kinase N1, sequence (Q16512 whole entry): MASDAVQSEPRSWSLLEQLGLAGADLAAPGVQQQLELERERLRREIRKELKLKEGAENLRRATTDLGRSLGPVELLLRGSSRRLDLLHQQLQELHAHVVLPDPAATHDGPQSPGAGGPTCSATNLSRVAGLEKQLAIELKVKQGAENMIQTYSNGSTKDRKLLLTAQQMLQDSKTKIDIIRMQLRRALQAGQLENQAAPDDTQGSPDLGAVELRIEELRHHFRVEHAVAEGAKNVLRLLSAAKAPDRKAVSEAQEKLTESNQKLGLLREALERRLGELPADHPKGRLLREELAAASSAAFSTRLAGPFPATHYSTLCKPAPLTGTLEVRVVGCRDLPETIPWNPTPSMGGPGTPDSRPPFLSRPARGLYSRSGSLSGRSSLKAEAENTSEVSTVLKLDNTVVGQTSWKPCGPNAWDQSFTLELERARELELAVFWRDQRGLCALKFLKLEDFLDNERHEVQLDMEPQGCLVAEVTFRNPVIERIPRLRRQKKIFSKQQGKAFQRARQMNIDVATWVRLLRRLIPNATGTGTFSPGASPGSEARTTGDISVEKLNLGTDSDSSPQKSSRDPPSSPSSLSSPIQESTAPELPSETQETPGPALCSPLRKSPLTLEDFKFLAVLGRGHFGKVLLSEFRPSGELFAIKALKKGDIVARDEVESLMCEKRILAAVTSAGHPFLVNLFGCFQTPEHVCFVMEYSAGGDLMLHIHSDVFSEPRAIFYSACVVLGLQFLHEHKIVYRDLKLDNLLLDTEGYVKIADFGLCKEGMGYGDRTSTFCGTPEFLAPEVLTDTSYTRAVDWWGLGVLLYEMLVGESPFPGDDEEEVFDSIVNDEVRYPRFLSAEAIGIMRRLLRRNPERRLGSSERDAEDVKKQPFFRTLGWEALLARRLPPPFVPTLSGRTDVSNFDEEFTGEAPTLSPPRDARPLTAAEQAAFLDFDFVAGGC

[3] = molecular target: T2, STE20-related kinase adapter protein alpha (Homo sapiens, UniProt Q7RTN6)
T2 sequence (Q7RTN6 whole entry): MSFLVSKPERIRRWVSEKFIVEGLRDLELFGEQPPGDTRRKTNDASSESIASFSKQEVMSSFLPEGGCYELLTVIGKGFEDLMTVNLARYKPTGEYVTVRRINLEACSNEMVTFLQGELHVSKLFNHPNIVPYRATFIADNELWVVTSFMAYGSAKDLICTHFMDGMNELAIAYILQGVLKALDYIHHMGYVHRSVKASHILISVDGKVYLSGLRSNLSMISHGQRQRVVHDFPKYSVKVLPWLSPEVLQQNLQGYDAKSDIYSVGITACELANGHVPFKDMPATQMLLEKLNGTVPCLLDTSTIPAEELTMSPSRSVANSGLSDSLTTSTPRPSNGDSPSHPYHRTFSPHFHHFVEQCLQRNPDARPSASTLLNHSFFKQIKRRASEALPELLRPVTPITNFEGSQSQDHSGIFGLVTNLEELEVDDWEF

[4] = molecular target: T3, Interleukin-1 receptor-associated kinase 3 (Homo sapiens, UniProt Q9Y616)
T3 sequence (Q9Y616 whole entry): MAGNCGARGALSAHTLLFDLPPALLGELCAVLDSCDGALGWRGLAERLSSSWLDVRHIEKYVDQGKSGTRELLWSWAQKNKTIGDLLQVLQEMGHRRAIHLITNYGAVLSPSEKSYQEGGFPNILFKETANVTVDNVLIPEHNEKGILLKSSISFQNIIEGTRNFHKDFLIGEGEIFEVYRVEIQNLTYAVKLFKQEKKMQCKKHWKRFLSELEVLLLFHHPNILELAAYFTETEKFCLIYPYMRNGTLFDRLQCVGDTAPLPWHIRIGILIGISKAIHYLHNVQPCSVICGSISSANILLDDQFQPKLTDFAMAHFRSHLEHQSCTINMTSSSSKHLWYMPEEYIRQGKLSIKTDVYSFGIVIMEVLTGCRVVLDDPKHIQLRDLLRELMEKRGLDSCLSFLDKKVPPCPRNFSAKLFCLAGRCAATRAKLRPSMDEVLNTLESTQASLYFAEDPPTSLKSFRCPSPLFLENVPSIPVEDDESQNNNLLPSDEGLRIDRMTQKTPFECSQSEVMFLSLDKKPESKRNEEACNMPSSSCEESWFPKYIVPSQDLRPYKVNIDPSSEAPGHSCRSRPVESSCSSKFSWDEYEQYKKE

[5] = molecular target: Tyrosine-protein kinase ABL1 (Homo sapiens, UniProt P00519)
Tyrosine-protein kinase ABL1, sequence (P00519 whole entry): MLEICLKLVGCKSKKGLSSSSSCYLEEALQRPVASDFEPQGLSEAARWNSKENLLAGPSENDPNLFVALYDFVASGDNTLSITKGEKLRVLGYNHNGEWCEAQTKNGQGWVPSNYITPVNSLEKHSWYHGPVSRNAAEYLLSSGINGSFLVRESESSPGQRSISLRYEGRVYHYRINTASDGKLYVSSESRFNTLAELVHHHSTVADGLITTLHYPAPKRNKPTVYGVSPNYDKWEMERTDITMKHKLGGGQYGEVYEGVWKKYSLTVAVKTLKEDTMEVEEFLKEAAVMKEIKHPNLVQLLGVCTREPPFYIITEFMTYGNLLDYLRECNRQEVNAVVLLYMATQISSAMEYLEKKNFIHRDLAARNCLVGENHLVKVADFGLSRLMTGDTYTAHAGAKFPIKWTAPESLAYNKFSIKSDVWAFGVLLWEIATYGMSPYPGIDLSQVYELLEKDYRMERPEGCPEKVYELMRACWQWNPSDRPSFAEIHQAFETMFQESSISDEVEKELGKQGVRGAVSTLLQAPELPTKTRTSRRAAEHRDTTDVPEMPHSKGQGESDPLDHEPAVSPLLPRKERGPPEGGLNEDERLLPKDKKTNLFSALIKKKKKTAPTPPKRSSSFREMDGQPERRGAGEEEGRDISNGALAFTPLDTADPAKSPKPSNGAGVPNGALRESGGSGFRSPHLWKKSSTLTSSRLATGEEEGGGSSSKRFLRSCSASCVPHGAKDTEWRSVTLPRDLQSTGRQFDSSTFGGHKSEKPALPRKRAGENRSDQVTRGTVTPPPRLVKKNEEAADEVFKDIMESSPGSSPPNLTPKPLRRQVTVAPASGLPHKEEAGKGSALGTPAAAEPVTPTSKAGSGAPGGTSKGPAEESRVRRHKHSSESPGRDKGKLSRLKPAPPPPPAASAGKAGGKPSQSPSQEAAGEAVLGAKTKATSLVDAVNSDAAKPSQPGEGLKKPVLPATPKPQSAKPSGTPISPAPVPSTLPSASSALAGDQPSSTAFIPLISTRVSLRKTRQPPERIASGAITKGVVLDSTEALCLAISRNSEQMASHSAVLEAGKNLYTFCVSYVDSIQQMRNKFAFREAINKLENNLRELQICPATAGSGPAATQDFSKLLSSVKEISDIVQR

[6] = molecular target: T4, Phosphatidylinositol 5-phosphate 4-kinase type-2 alpha (Homo sapiens, UniProt P48426)
T4 sequence (P48426 whole entry): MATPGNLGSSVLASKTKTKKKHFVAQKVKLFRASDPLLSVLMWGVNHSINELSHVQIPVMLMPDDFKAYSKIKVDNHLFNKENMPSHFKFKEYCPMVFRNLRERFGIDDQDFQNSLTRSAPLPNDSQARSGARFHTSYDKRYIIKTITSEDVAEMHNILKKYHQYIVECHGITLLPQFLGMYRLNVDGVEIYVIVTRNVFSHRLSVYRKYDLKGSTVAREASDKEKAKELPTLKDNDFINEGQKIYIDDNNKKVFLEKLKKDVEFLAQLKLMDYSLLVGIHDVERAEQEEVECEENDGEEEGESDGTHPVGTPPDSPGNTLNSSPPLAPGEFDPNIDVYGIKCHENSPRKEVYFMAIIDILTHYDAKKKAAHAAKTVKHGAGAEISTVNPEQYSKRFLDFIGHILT

[7] = molecular target: T5, Adenine phosphoribosyltransferase (Homo sapiens, UniProt P07741)
T5 sequence (P07741 whole entry): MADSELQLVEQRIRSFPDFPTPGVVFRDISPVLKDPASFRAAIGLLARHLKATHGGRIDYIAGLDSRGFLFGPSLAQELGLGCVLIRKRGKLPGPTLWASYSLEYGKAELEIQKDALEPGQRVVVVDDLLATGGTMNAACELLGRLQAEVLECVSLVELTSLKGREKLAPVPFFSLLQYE
Also: in the data inactive means no Kd found up to 30 µM.

Kd (Septin-9)	Kd [1]	Kd [2]	Kd [3]	Kd [4]	Kd [5]	Kd [6]	Kd [7]	Structure (SMILES)
> 30 µM (inactive)	1.7 µM (active)	> 30 µM (inactive)	> 30 µM (inactive)	> 30 µM (inactive)	> 30 µM (inactive)	> 30 µM (inactive)	> 30 µM (inactive)	O=C(Nc1ccc(OC(F)(F)F)cc1)c1sccc1NCc1ccnc2ccccc12 [OSI-930]
> 30 µM (inactive)	> 30 µM (inactive)	> 30 µM (inactive)	0.316 µM	> 30 µM (inactive)	> 30 µM (inactive)	> 30 µM (inactive)	> 30 µM (inactive)	Cc1cc(Nc2nc(N[C@@H](C)c3ncc(F)cn3)ncc2Cl)n[nH]1 [AZD-1480]
> 30 µM (inactive)	> 30 µM (inactive)	> 30 µM (inactive)	> 30 µM (inactive)	> 30 µM (inactive)	> 30 µM (inactive)	–	> 30 µM (inactive)	COc1cc2ncnc3c2cc1OCCCCCN(C)Cc1ccc(Br)cc1N3 [JNJ-26483327]
> 30 µM (inactive)	> 30 µM (inactive)	> 30 µM (inactive)	–	–	0.523 µM (active)	> 30 µM (inactive)	> 30 µM (inactive)	CCOc1ccn(-c2ccc(F)cc2)c(=O)c1C(=O)Nc1ccc(Oc2ccnc(N)c2Cl)c(F)c1 [BMS-777607]
> 30 µM (inactive)	> 30 µM (inactive)	> 30 µM (inactive)	> 30 µM (inactive)	> 30 µM (inactive)	0.918 µM (active)	> 30 µM (inactive)	–	Cc1cc(C(=O)Nc2cc(Oc3ccc4nc(NC(=O)C5CC5)cn4n3)ccc2C)n(C)n1 [TAK-593]

The remaining lines, values behind:

Structure (SMILES)	Kd (Septin-9)	Kd [1]	Kd [2]	Kd [3]	Kd [4]	Kd [5]	Kd [6]	Kd [7]
O=C(NOC[C@H](O)CO)c1ccc(F)c(F)c1Nc1ccc(I)cc1F [MIRDAMETINIB]	> 30 µM (inactive)	> 30 µM (inactive)	> 30 µM (inactive)	> 30 µM (inactive)	> 30 µM (inactive)	> 30 µM (inactive)	> 30 µM (inactive)	> 30 µM (inactive)
COc1cc(Nc2ncc(F)c(Nc3ccc4c(n3)N(COP(=O)(O)O)C(=O)C(C)(C)O4)n2)cc(OC)c1OC [FOSTAMATINIB]	> 30 µM (inactive)	> 30 µM (inactive)	> 30 µM (inactive)	> 30 µM (inactive)	1.29 µM (active)	> 30 µM (inactive)	> 30 µM (inactive)	> 30 µM (inactive)
FC(F)(F)c1ccc(CNc2ccc(Cc3c[nH]c4ncc(Cl)cc34)cn2)cn1 [PEXIDARTINIB]	> 30 µM (inactive)	> 30 µM (inactive)	> 30 µM (inactive)	> 30 µM (inactive)	> 30 µM (inactive)	> 30 µM (inactive)	> 30 µM (inactive)	–
S=C(NCc1ccc2c(c1)OCO2)N1CCN(c2ncnc3c2oc2ccccc23)CC1 [AMUVATINIB]	> 30 µM (inactive)	> 30 µM (inactive)	> 30 µM (inactive)	> 30 µM (inactive)	> 30 µM (inactive)	> 30 µM (inactive)	> 30 µM (inactive)	> 30 µM (inactive)
C[C@@H]1COC(Nc2ccc3ncnc(Nc4ccc(OCc5nccs5)c(Cl)c4)c3c2)=N1 [VARLITINIB]	> 30 µM (inactive)	0.088 µM (active)	> 30 µM (inactive)	> 30 µM (inactive)	> 30 µM (inactive)	> 30 µM (inactive)	> 30 µM (inactive)	> 30 µM (inactive)
CCN1CCN(Cc2ccc(Nc3ncc(F)c(-c4cc(F)c5nc(C)n(C(C)C)c5c4)n3)nc2)CC1 [ABEMACICLIB]	> 30 µM (inactive)	> 30 µM (inactive)	> 30 µM (inactive)	> 30 µM (inactive)	> 30 µM (inactive)	> 30 µM (inactive)	> 30 µM (inactive)	–
O=c1[nH]c([C@@H]2CCCN2)nc2c1oc1ccc(Cl)cc12	> 30 µM (inactive)	> 30 µM (inactive)	> 30 µM (inactive)	> 30 µM (inactive)	> 30 µM (inactive)	> 30 µM (inactive)	> 30 µM (inactive)	–
O=C(O)c1ccc2c(c1)nc(Nc1cccc(Cl)c1)c1ccncc12 [SILMITASERTIB]	> 30 µM (inactive)	2.18 µM (active)	20.4 µM (active)	> 30 µM (inactive)	> 30 µM (inactive)	> 30 µM (inactive)	–	> 30 µM (inactive)
Cc1c(NC(=O)OC[C@@H]2COCCN2)cn2ncnc(Nc3ccc4c(cnn4Cc4cccc(F)c4)c3)c12 [AC-480]	> 30 µM (inactive)	> 30 µM (inactive)	> 30 µM (inactive)	> 30 µM (inactive)	> 30 µM (inactive)	> 30 µM (inactive)	–	> 30 µM (inactive)
COc1cc2ncnc(Nc3ccc(F)c(Cl)c3)c2cc1NC(=O)/C=C/CN1CCCCC1 [DACOMITINIB ANHYDROUS]	> 30 µM (inactive)	3.64 µM (active)	> 30 µM (inactive)	> 30 µM (inactive)	> 30 µM (inactive)	> 30 µM (inactive)	> 30 µM (inactive)	–
C#Cc1cccc(Nc2ncnc3cc4c(cc23)OCCOCCOCCO4)c1 [ICOTINIB]	> 30 µM (inactive)	> 30 µM (inactive)	> 30 µM (inactive)	> 30 µM (inactive)	> 30 µM (inactive)	> 30 µM (inactive)	–	> 30 µM (inactive)
O=S(=O)(c1cccc2cnccc12)N1CCCNCC1 [FASUDIL]	> 30 µM (inactive)	> 30 µM (inactive)	0.841 µM (active)	> 30 µM (inactive)	–	> 30 µM (inactive)	> 30 µM (inactive)	> 30 µM (inactive)
Cc1c(Cn2c(C)nc3c(C(=O)O)cc(N4CCOCC4)cc32)cccc1C(F)(F)F [GSK-2636771]	> 30 µM (inactive)	> 30 µM (inactive)	> 30 µM (inactive)	> 30 µM (inactive)	> 30 µM (inactive)	> 30 µM (inactive)	> 30 µM (inactive)	–
CCc1nc(C(N)=O)c(Nc2ccc(N3CCC(N4CCN(C)CC4)CC3)c(OC)c2)nc1NC1CCOCC1 [GILTERITINIB]	> 30 µM (inactive)	1.3 µM (active)	> 30 µM (inactive)	> 30 µM (inactive)	–	> 30 µM (inactive)	> 30 µM (inactive)	–
Cc1cc(-c2cc(OC(=O)c3ccccc3)ccc2Cl)cc2nnc(Nc3ccc(OCCN4CCCC4)cc3)nc12 [TG100-801]	> 30 µM (inactive)	> 30 µM (inactive)	> 30 µM (inactive)	> 30 µM (inactive)	> 30 µM (inactive)	10.7 µM (active)	> 30 µM (inactive)	–

Source: ChEMBL document CHEMBL3991601, “The target landscape of clinical kinase drugs” (Science, 2017)
